One series has as its target T1, human wild-type RET (Homo sapiens, UniProt P07949).
T1 construct: purchased Reaction Biology Corp
Put plainly: 33P isotope-labeled kinase activity test, wild-type RET. The class given is biochemical. The settings on record: 33P-ATP at Km concentration. The protocol: (§1) ^33P isotope-labeled kinase activity test (Reaction Biology Corp) was used to determine IC50 value so as to evaluate an inhibitory ability of a test compound on human wild-type, V804M and V804L mutant RET.
(§2) Buffer solution condition: 20 mM 4-(2-hydroxyethyl)piperazine-1-ethanesulfonic acid (Hepes) (pH 7.5), 10 mM MgCl2, 1 mM 1,2-bis[2-[bis(carboxymethyl)amino]ethoxy]ethane (EGTA), 0.02% polyoxyethylene lauryl ether (Brij35), 0.02 mg/mL bovine serum albumin (BSA), 0.1 mM of Na3VO4, 2 mM dithiothreitol (DTT) and 1% DMSO.
(§3) Compound treatment: the compound to be tested was dissolved in 100% DMSO, and then the obtained solution was continuously diluted with DMSO by using Integra Viaflo Assist until a specific concentration was obtained.
(§4) Test procedures: a substrate was dissolved in the newly prepared buffer solution, a kinase to be tested was added therein, and the obtained solution was gently and evenly mixed. DMSO solution in which a compound to be test was dissolved was added in the above evenly mixed reaction solution by using an acoustic technology (Echo 550), and then incubated for 20 minutes at room temperature. […] Kinase activity data was expressed by comparing the kinase activity of the compound to be tested with the kinase activity of a blank group (containing only DMSO). The IC50 value was obtained by curve fitting with Prism4 software (GraphPad).

Series [1] can be described thus: Body weight of mice in Ba/F3 KIF5B-RET xenograft experiment. The note with it: Ba/F3 KIF5B-RET model, in g (unit assumed). The class given is in vivo, NPSG mice. The protocol:
(§5) 4) After inoculation, the volume and weight of tumors were measured once a week. When the average tumor volume reached 104 mm^3, mice were randomly grouped according to the volume and weight of tumors with 6 mice in each group. The administration was started immediately after the grouping. The start date of the administration was recorded as day 0.
(§6) 5) After administration was started, the body weight and tumor volume of the mice were measured respectively on the day 0, day 3, day 6, and day 10.

For the next series, the target named is T2, V804M mutant RET (Homo sapiens, UniProt P07949, V804M).
T2 construct: purchased Reaction Biology Corp
T2 sequence (P07949 29-1114 V804M): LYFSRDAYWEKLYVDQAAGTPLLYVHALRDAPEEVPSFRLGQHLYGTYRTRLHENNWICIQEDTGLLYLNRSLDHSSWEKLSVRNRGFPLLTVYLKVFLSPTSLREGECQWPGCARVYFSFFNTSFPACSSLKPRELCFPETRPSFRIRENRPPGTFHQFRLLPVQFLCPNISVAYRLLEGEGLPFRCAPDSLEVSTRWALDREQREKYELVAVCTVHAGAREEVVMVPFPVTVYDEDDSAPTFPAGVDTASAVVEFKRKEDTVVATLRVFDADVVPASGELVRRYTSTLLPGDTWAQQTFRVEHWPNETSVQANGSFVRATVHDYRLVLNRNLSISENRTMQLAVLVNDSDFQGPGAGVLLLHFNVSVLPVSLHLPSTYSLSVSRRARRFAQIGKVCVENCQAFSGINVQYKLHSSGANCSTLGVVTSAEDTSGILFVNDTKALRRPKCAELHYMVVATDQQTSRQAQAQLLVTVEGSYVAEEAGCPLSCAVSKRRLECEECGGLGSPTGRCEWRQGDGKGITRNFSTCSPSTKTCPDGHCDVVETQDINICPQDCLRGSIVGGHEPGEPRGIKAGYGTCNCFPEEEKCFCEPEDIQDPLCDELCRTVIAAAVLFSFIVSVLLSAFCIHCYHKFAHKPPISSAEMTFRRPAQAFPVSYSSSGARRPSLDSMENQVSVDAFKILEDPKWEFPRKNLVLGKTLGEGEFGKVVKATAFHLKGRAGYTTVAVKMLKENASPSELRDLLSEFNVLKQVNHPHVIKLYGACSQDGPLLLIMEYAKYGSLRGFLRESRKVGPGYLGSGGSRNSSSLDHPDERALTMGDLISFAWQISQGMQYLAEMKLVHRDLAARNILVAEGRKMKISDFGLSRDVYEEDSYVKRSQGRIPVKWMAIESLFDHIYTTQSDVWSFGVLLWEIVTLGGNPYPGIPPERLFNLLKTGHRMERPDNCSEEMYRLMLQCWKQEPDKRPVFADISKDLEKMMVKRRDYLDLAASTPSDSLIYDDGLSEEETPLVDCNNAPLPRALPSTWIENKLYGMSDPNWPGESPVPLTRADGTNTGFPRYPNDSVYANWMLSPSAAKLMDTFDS
The series can be described thus: 33P isotope-labeled kinase activity test, V804M mutant RET. The class given is biochemical. The settings on record: 33P-ATP at Km concentration. The procedure: as §1, §2, §3, §4

The nature of series [2]: Pharmacokinetic evaluation in mice. The series is classed as in vivo, CD-1 mice (male). The note with it: male, mouse, plasma, CD-1 mice; for bioavailability: read-out: Bioavailability F; for AUC: read-out: Integrated Concentration AUC; for clearance: read-out: Clearance Rate; for half-life: read-out: Half-life T1/2 (converted). The source says: Experiment objective: to test the pharmacokinetic of compound in mice
Experiment material: CD-1 mice (male)
Experiment operations: the pharmacokinetic characteristics of rodents after intravenous injection and oral administration of the compounds were obtained by using a standard scheme. In the experiment, candidate compounds were formulated into clear solutions, and mice were administrated by a single intravenous injection and oral administration. The solvent of the intravenous injection and oral administration was 10% PEG400 (polyethylene glycol 400)+90%(10% hydroxypropyl-β-cyclodextrin). The whole blood samples were collected within 24 hours. All the blood samples were added respectively into labeled plastic centrifuge tubes in which 0.5 M K2-EDTA anticoagulants were pre-added. The blood samples were collected, and centrifuged at 3,000 g for 10 min at 4° C. The supernatant plasma was collected by absorbing and quickly placed in dry ice to keep at −20° C. or lower. Blood concentrations were quantitatively analyzed by using an LC-MS/MS analysis method, and pharmacokinetic parameters, such as peak concentration, peak time, clearance rate, half-life, area under drug concentration-time curve, bioavailability, etc. were calculated.

Series [3] deals with Ba/F3 KIF5B-RET-V804L tumor cell xenograft. The series can be described thus: Efficacy in Ba/F3 KIF5B-RET-V804L tumor cell xenograft model. The class given is in vivo, NPSG mice. From the text:
1) Ba/F3 KIF5B-RET-V804L cells were resuscitated and cultured in vitro to obtain 5×10^7 cells.
2) Forty-five 6-8 week old female mice were adaptively fed for 1 week and weighed.
3) Ba/F3 KIF5B-RET-V804L tumor cells were subcutaneously inoculated into the right scapula position of the mice so as to establish the engineered cell line Ba/F3 KIF5B3-RET-V804L tumor cell xenograft model. Inoculation conditions were as follows: (see Table 3)
(§7) 4) After inoculation, the volume and weight of tumors were measured once a week. When the average tumor volume reached 124.5 mm^3, mice with the tumor volume between 82.9 mm^3 and 145.4 mm^3 were selected and randomly grouped according to the volume and weight of tumors with 6 mice in each group. The administration was started immediately after the grouping. The start date of the administration was recorded as day 0.
(§8) 5) After the administration was started, the mice were continuously administrated for 9 days, and the body weight and tumor volume of the mice were measured on day 3, day 6, and day 9.
6) Data statistics were analyzed by one-way ANOVA. Variance homogeneity difference of data was firstly detected. If there was no difference in the variance homogeneity, an LSD method was used for analysis; and if there was a difference in the variance homogeneity, Dunnett's T3 was selected for data analysis. All data were analyzed by using SPSS 17.0. A p value less than 0.05 was considered a significant difference.

Series [4] can be described thus: Body weight of mice in Ba/F3 KIF5B-RET-V804L xenograft experiment. The class given is in vivo, NPSG mice. The note with it: 10 mg/kg p.o. BID, Ba/F3 KIF5B-RET-V804L model, in g (unit assumed). The protocol:
as §7, §8

A further series deals with T3, V804L mutant RET (Homo sapiens, UniProt P07949, V804L).
T3 construct: purchased Reaction Biology Corp
T3 sequence (P07949 29-1114 V804L): as the sequence (P07949 29-1114 V804M) above, with M776L counted along it
Put plainly: 33P isotope-labeled kinase activity test, V804L mutant RET. The series is classed as biochemical. The note with it: 33P-ATP at Km concentration. The protocol:
as §1, §2, §3, §4

In series [5] the test system is Ba/F3 KIF5B-RET tumor cell xenograft. Put plainly: Efficacy in engineered cell line Ba/F3 KIF5B-RET xenograft model. The settings on record: for TGI: TGI = 1-ΔT/ΔC; for Tumor Volume on Day 10 / Tumor Volume on Day 0: average ± standard error. The series is classed as in vivo, NPSG mice.
From the text: To verify efficacy of drugs to be tested alone on the engineered cell line Ba/F3 KIF5B-RET xenograft model of NPSG mice.
1) Ba/F3 KIF5B-RET cells were resuscitated and cultured in vitro to obtain 4×10^7 cells.
2) Sixty 6-8 week old female NPSG mice were adaptively fed for one week and weighed.
3) The Ba/F3 KIF5B-RET cells were subcutaneously inoculated on right scapula of mice according to the inoculation conditions obtained in the pre-test (see Table 7) to establish the Ba/F3 KIF5B-RET tumor cell xenograft model of NPSG mice.
as §5, §6
6) For the experiment of two groups, a T-Test analysis method was used. For a comparison of three or more groups, One-Way ANOVA was used for analysis. For comparing potential synergistic effects, Two-Way ANOVA was used for analysis. All data were analyzed by using SPSS 17.0. A p value less than 0.05 was considered to be a significant difference, and a p value less than 0.01 was considered to be a very significant difference.

The mark [6] stands for this setting: 10 mg/kg, oral administration 10 mpk.
The mark [7] stands for this setting: iv, 2 mg/kg, injection administration 2 mpk.

Structures are written as SMILES. Read-outs that look alike come from different tables or passages of the source.

The results in this text go back to patent US12240849B2, “Nitrogen-containing spiro derivative as RET inhibitor” (GUANGZHOU BAIYUNSHAN PHARMACEUTICAL HOLDINGS CO., LTD. …, priority 2019, dated 2025).

T1 sequence (P07949 29-1114): as the sequence (P07949 29-1114 V804M) above, with M776V counted along it

On to `Cc1cc(Nc2cc(C)[nH]n2)nc(N2CCC3(CC2)OCCN(C(C)c2ccc(-n4cc(F)cn4)nc2)C3=O)n1` (stereo not drawn) [Compound 018], for which the half-maximal inhibitory concentration (IC50) (commonly the midpoint of a concentration-inhibition curve) was 1.29 nM against human wild-type RET, 1.97 nM on V804M mutant RET and 1.23 nM at V804L mutant RET. Moreover, the Body weight in series [1] (day 0, 10 mg/kg p.o. BID) was 17.7 ± 0.47; in series [1] (day 0, 20 mg/kg p.o. BID) it was 17.6 ± 0.58; in series [1] (day 3, 10 mg/kg p.o. BID), 18.2 ± 0.51; in series [1] (day 3, 20 mg/kg p.o. BID), 18.1 ± 0.56; in series [1] (day 6, 10 mg/kg p.o. BID), 18.5 ± 0.57; in series [1] (day 6, 20 mg/kg p.o. BID), 18.3 ± 0.53. For the same compound, the Body weight in series [1] (day 10, 10 mg/kg p.o. BID) was determined as 17.7 ± 0.86; in series [1] (day 10, 20 mg/kg p.o. BID), 18.5 ± 0.63; in series [4] (day 0), 18.6 ± 0.49; in series [4] (day 3), 18.8 ± 0.48; in series [4] (day 6) it was 18.6 ± 0.87; in series [4] (day 9) it was 19 ± 0.64. Further, in series [2] (setting [6]), the bioavailability (commonly dose-corrected exposure relative to a reference, in per cent) was found to be 59.7%. Further, the AUC stood at 27.7 µM·h in series [2] (setting [6]) and 9.3 µM·h in series [2] (setting [7]). Besides, in series [2] (setting [7]), the clearance (in general, the rate of elimination divided by the concentration) worked out at 6.55 mL/min/kg. In addition, the half-life in series [2] (setting [7]) was 2.56 h. Besides, the ΔVAC in series [3] (10 mg/kg p.o. BID Day 0-Day 9) is reported as −7%; in series [5] (10 mg/kg p.o. BID Day 0-Day 10), 10%; in series [5] (20 mg/kg p.o. BID Day 0-Day 10), −7%. For the same compound, the TGI in series [3] (10 mg/kg p.o. BID Day 0-Day 9, TGI = 1-ΔT/ΔC) worked out at 107%; in series [5] (10 mg/kg p.o. BID Day 0-Day 10), 90%; in series [5] (20 mg/kg p.o. BID Day 0-Day 10) it was 107%. In addition, the “Tumor Volume on Day 9” value in series [3] (10 mg/kg p.o. BID Day 0-Day 9, average ± standard error) amounted to 75.5 ± 7.11 mm^3. For the same compound, the “Tumor Volume on Day 0” value is given as 125 ± 3.96 mm^3 in series [3] (10 mg/kg p.o. BID, average ± standard error); 106.3 ± 7.14 mm^3 in series [5] (10 mg/kg p.o. BID); 102.2 ± 7.09 mm^3 in series [5] (20 mg/kg p.o. BID). The “Tumor Volume on Day 10” value in series [5] (10 mg/kg p.o. BID Day 0-Day 10) came to 205.1 ± 29.87 mm^3; in series [5] (20 mg/kg p.o. BID Day 0-Day 10), 32.8 ± 6.81 mm^3.
`Cc1cc(Nc2cc(C)nc(N3CCC4(CC3)CCN(C(C)c3ccc(-n5cc(F)cn5)nc3)C4)n2)[nH]n1` (stereo not drawn) [Compound 003-h] returned an IC50 against human wild-type RET of 73.9 nM.
Consider `Cc1cc(Nc2cc(C)nc(C3CCC4(CC3)OCCN(C(C)c3ccc(-n5cc(F)cn5)nc3)C4=O)n2)[nH]n1` (single isomer, unassigned) [Compound 014], for which the Body weight in series [1] (day 0, 10 mg/kg p.o. BID) is recorded as 18 ± 0.57; in series [1] (day 3, 10 mg/kg p.o. BID) it was 18.5 ± 0.47; in series [1] (day 6, 10 mg/kg p.o. BID) it was 18.5 ± 0.75; in series [1] (day 10, 10 mg/kg p.o. BID), 18.6 ± 0.62; in series [4] (day 0), 19.5 ± 0.53; in series [4] (day 3), 20.3 ± 0.72. The Body weight was 20.5 ± 0.72 in series [4] (day 6) and 20.3 ± 0.84 in series [4] (day 9). For the same compound, the bioavailability in series [2] (setting [6]) amounted to 53.7%. Moreover, the AUC in series [2] (setting [6]) came out at 49.6 µM·h; in series [2] (setting [7]), 16.4 µM·h. For the same compound, the clearance in series [2] (setting [7]) is 1.65 mL/min/kg. For the same compound, the half-life in series [2] (setting [7]) was 2.53 h. Also, the values for the ΔVAC in series [3] (10 mg/kg p.o. BID Day 0-Day 9) and in series [5] (10 mg/kg p.o. BID Day 0-Day 10) were −6% and 1%, respectively.
